Experiment: penetration into a human skin sample, topical application versus application combined with electroporation, amount determined by ELISA
Format: in vitro ADME
Excerpt: To test the effect of the device, a sample of human skin is peripherally attached to a support, with the counterelectrode of the electroporation device placed between the inner face of the skin and the support. The electrode of the electroporation device is placed in contact with the outer face of the skin sample. The case of the electroporation device is immobilized by a support. The support is placed on an orbital shaker, so that the electrode moves over the surface of the skin. The device used in this example is a BTX Gemini X2 programmable signal generator (Harvard Instruments). The electroporation treatment time is about 1 minute. It consists of 81 pulses of 10 ms each, with rest periods of 500 ms between the pulses. The polarity chosen is negative, i.e. the electrode is at a negative potential relative to the counterelectrode. On the skin, the voltage between the electrode and the counterelectrode is about 40 V. 50 μl of […] are applied before the device is placed in position (corresponding to 100 μl/cm^2). […] Results The skin is removed from the experimental system and then analysed to determine the amount of N-acetyl-3-trifluoromethyl-phenyl-(valine-glycine) which has penetrated, via an ELISA technique.

amount that has penetrated into the skin (electroporation process (81 pulses of 10 ms, 500 ms rest, about 40 V, negative polarity) compared with topical application of an identical composition, 1% formulations 1 and 2, 100 μl/cm^2, FIG. 4): much higher | amount that has penetrated into the skin (FIG. 5) (electroporation process compared with topical application of an identical composition, FIG. 5): log higher
SMILES: CC(=O)N(c1cccc(C(F)(F)F)c1)C(C(=O)NCC(=O)O)C(C)C (centres unmarked) [N-acetyl-3-trifluoromethyl-phenyl-(valine-glycine)]

From US20250281740A1, “Electroporation process for delivering a composition comprising at least one peptide of molecular weight ranging from 500 Da to 20 kDa” (L'OREAL, priority 2021, published 2025)
